Activity calls are given as the source filed them. No rule for the calls is given here. Non-standard residues stand in square brackets, D forms with d. Residues, ends and D or L forms follow the SMILES beside them. hArg = N=C(N)NCCCC[C@H](N)C(=O)O; Agb = N=C(N)NCC[C@H](N)C(=O)O; Agp = N=C(N)NC[C@H](N)C(=O)O; Orn = NCCC[C@H](N)C(=O)O; Dab = NCC[C@H](N)C(=O)O; Dap = NC[C@H](N)C(=O)O
Assays:
[1] = system: Staphylococcus aureus; assay: Antibacterial activity against methicillin-resistant Staphylococcus aureus assessed as alteration in bacterial growth incubated for overnight by microtiter plate based spectrophotometric analysis; type: functional, organism-based
[2] = system: Staphylococcus aureus; assay: Antibiofilm activity against methicillin-resistant Staphylococcus aureus assessed as inhibition of biofilm formation incubated for overnight by crystal violet staining based microtiter plate assay; type: functional, organism-based
[3] = system: Staphylococcus aureus; assay: Antibiofilm activity against methicillin-resistant Staphylococcus aureus assessed as inhibition of biofilm formation by measuring residual biofilm growth incubated for overnight at 10-fold dilution by crystal violet staining based microtiter plate assay relative to control; type: functional

For CC[C@H](C)[C@H](NC(=O)[C@H](CC(C)C)NC(=O)[C@H](CCCNC(=N)N)NC(=O)[C@@H](N)C(C)C)C(=O)N[C@@H](CN)C(=O)N[C@@H](C)C(=O)N[C@H](C(=O)N[C@@H](CCCNC(=N)N)C(=O)N[C@H](C(=O)N[C@@H](Cc1c[nH]c2ccccc12)C(=O)N[C@@H](CCCNC(=N)N)C(=O)N[C@@H](CCCNC(=N)N)C(N)=O)[C@@H](C)CC)C(C)C (H-VRLI[Dap]AVRIWRR-NH2), the Activity [1] was “Active”, the inhibition [2] was “Dose-dependent effect” and the “residual biofilm growth (% of control)” value [3] was 92%.
With H-VRLIVARRIWRR-NH2 the Activity [1] was “Active”, the inhibition [2] was “Dose-dependent effect” and the “residual biofilm growth (% of control)” value [3] was 102.6%.
With H-VRLIVAVRRWRR-NH2 the Activity [1] was “Active”, the inhibition [2] was “Dose-dependent effect” and the “residual biofilm growth (% of control)” value [3] was 70.2%.
CC[C@H](C)[C@H](NC(=O)[C@H](CCCNC(=N)N)NC(=O)[C@@H](NC(=O)[C@H](C)NC(=O)[C@@H](NC(=O)[C@@H](NC(=O)[C@H](CC(C)C)NC(=O)[C@H](CCNC(=N)N)NC(=O)[C@@H](N)C(C)C)[C@@H](C)CC)C(C)C)C(C)C)C(=O)N[C@@H](Cc1c[nH]c2ccccc12)C(=O)N[C@@H](CCCNC(=N)N)C(=O)N[C@@H](CCCNC(=N)N)C(N)=O (H-V[Agb]LIVAVRIWRR-NH2) was tested, and the Activity [1] was “Active”, the inhibition [2] was “Dose-dependent effect” and the “residual biofilm growth (% of control)” value [3] was 29.6%.
CC[C@H](C)[C@H](NC(=O)[C@H](CCCNC(=N)N)NC(=O)[C@@H](NC(=O)[C@H](C)NC(=O)[C@@H](NC(=O)[C@@H](NC(=O)[C@H](CC(C)C)NC(=O)[C@H](CCCN)NC(=O)[C@@H](N)C(C)C)[C@@H](C)CC)C(C)C)C(C)C)C(=O)N[C@@H](Cc1c[nH]c2ccccc12)C(=O)N[C@@H](CCCNC(=N)N)C(=O)N[C@@H](CCCNC(=N)N)C(N)=O (H-V[Orn]LIVAVRIWRR-NH2) was tested, and the Activity [1] was “Active”, the inhibition [2] was “Dose-dependent effect” and the “residual biofilm growth (% of control)” value [3] was 13.2%.
CC[C@H](C)[C@H](NC(=O)[C@H](CCCNC(=N)N)NC(=O)[C@@H](NC(=O)[C@H](CN)NC(=O)[C@@H](NC(=O)[C@@H](NC(=O)[C@H](CC(C)C)NC(=O)[C@H](CCCNC(=N)N)NC(=O)[C@@H](N)C(C)C)[C@@H](C)CC)C(C)C)C(C)C)C(=O)N[C@@H](Cc1c[nH]c2ccccc12)C(=O)N[C@@H](CCCNC(=N)N)C(=O)N[C@@H](CCCNC(=N)N)C(N)=O (H-VRLIV[Dap]VRIWRR-NH2) was tested, and the Activity [1] was “Active”, the inhibition [2] was “Dose-dependent effect” and the “residual biofilm growth (% of control)” value [3] was 34.1%.
In the case of CC[C@H](C)[C@H](NC(=O)[C@H](CCCNC(=N)N)NC(=O)[C@@H](NC(=O)[C@H](C)NC(=O)[C@@H](NC(=O)[C@@H](NC(=O)[C@H](CCCN)NC(=O)[C@H](CCCNC(=N)N)NC(=O)[C@@H](N)C(C)C)[C@@H](C)CC)C(C)C)C(C)C)C(=O)N[C@@H](Cc1c[nH]c2ccccc12)C(=O)N[C@@H](CCCNC(=N)N)C(=O)N[C@@H](CCCNC(=N)N)C(N)=O (H-VR[Orn]IVAVRIWRR-NH2), the Activity [1] is reported as “Active”, the inhibition [2] is reported as “Dose-dependent effect” and the “residual biofilm growth (% of control)” value [3] is reported as 99.3%.
In the case of CC[C@H](C)[C@H](NC(=O)[C@H](CC(C)C)NC(=O)[C@H](CCCNC(=N)N)NC(=O)[C@@H](N)C(C)C)C(=O)N[C@@H](CNC(=N)N)C(=O)N[C@@H](C)C(=O)N[C@H](C(=O)N[C@@H](CCCNC(=N)N)C(=O)N[C@H](C(=O)N[C@@H](Cc1c[nH]c2ccccc12)C(=O)N[C@@H](CCCNC(=N)N)C(=O)N[C@@H](CCCNC(=N)N)C(N)=O)[C@@H](C)CC)C(C)C (H-VRLI[Agp]AVRIWRR-NH2), the Activity [1] is reported as “Active”, the inhibition [2] is reported as “Dose-dependent effect” and the “residual biofilm growth (% of control)” value [3] is reported as 99.9%.
H-VRLRVAVRIWRR-NH2 was tested, and the Activity [1] was “Active”, the inhibition [2] was “Dose-dependent effect” and the “residual biofilm growth (% of control)” value [3] was 15%.
For CC[C@H](C)[C@H](NC(=O)[C@H](CCCNC(=N)N)NC(=O)[C@@H](NC(=O)[C@H](C)NC(=O)[C@@H](NC(=O)[C@@H](NC(=O)[C@H](CC(C)C)NC(=O)[C@H](CCN)NC(=O)[C@@H](N)C(C)C)[C@@H](C)CC)C(C)C)C(C)C)C(=O)N[C@@H](Cc1c[nH]c2ccccc12)C(=O)N[C@@H](CCCNC(=N)N)C(=O)N[C@@H](CCCNC(=N)N)C(N)=O (H-V[Dab]LIVAVRIWRR-NH2), the Activity [1] was “Active”, the inhibition [2] was “Dose-dependent effect” and the “residual biofilm growth (% of control)” value [3] was 21.5%.
CC[C@H](C)[C@H](NC(=O)[C@H](CCCNC(=N)N)NC(=O)[C@@H](NC(=O)[C@H](C)NC(=O)[C@@H](NC(=O)[C@@H](NC(=O)[C@H](CC(C)C)NC(=O)[C@H](CCCNC(=N)N)NC(=O)[C@@H](N)C(C)C)[C@@H](C)CC)C(C)C)C(C)C)C(=O)N[C@@H](CCCN)C(=O)N[C@@H](CCCNC(=N)N)C(=O)N[C@@H](CCCNC(=N)N)C(N)=O (H-VRLIVAVRI[Orn]RR-NH2) was tested, and the Activity [1] was “Active”, the inhibition [2] was “Dose-dependent effect” and the “residual biofilm growth (% of control)” value [3] was 39.3%.
In the case of H-VRLIKAVRIWRR-NH2, the Activity [1] is reported as “Active”, the inhibition [2] is reported as “Dose-dependent effect” and the “residual biofilm growth (% of control)” value [3] is reported as 102%.
With CC[C@H](C)[C@H](NC(=O)[C@H](CCN)NC(=O)[C@@H](NC(=O)[C@H](C)NC(=O)[C@@H](NC(=O)[C@@H](NC(=O)[C@H](CC(C)C)NC(=O)[C@H](CCCNC(=N)N)NC(=O)[C@@H](N)C(C)C)[C@@H](C)CC)C(C)C)C(C)C)C(=O)N[C@@H](Cc1c[nH]c2ccccc12)C(=O)N[C@@H](CCCNC(=N)N)C(=O)N[C@@H](CCCNC(=N)N)C(N)=O (H-VRLIVAV[Dab]IWRR-NH2) the Activity [1] was “Active”, the inhibition [2] was “Dose-dependent effect” and the “residual biofilm growth (% of control)” value [3] was 103.9%.
CC[C@H](C)[C@H](NC(=O)[C@H](CCCNC(=N)N)NC(=O)[C@H](CNC(=N)N)NC(=O)[C@H](C)NC(=O)[C@@H](NC(=O)[C@@H](NC(=O)[C@H](CC(C)C)NC(=O)[C@H](CCCNC(=N)N)NC(=O)[C@@H](N)C(C)C)[C@@H](C)CC)C(C)C)C(=O)N[C@@H](Cc1c[nH]c2ccccc12)C(=O)N[C@@H](CCCNC(=N)N)C(=O)N[C@@H](CCCNC(=N)N)C(N)=O (H-VRLIVA[Agp]RIWRR-NH2) was tested, and the Activity [1] was “Active”, the inhibition [2] was “Dose-dependent effect” and the “residual biofilm growth (% of control)” value [3] was 106.7%.
With CC[C@H](C)[C@H](NC(=O)[C@H](CC(C)C)NC(=O)[C@H](CCCNC(=N)N)NC(=O)[C@@H](N)C(C)C)C(=O)N[C@H](C(=O)N[C@@H](C)C(=O)N[C@H](C(=O)N[C@@H](CCCNC(=N)N)C(=O)N[C@@H](CCN)C(=O)N[C@@H](Cc1c[nH]c2ccccc12)C(=O)N[C@@H](CCCNC(=N)N)C(=O)N[C@@H](CCCNC(=N)N)C(N)=O)C(C)C)C(C)C (H-VRLIVAVR[Dab]WRR-NH2) the Activity [1] was “Active”, the inhibition [2] was “Dose-dependent effect” and the “residual biofilm growth (% of control)” value [3] was 102%.
In the case of CC[C@H](C)[C@H](NC(=O)[C@H](CCCNC(=N)N)NC(=O)[C@H](CN)NC(=O)[C@H](C)NC(=O)[C@@H](NC(=O)[C@@H](NC(=O)[C@H](CC(C)C)NC(=O)[C@H](CCCNC(=N)N)NC(=O)[C@@H](N)C(C)C)[C@@H](C)CC)C(C)C)C(=O)N[C@@H](Cc1c[nH]c2ccccc12)C(=O)N[C@@H](CCCNC(=N)N)C(=O)N[C@@H](CCCNC(=N)N)C(N)=O (H-VRLIVA[Dap]RIWRR-NH2), the Activity [1] is reported as “Active”, the inhibition [2] is reported as “Dose-dependent effect” and the “residual biofilm growth (% of control)” value [3] is reported as 102%.
With H-VRKIVAVRIWRR-NH2 the Activity [1] was “Active”, the inhibition [2] was “Dose-dependent effect” and the “residual biofilm growth (% of control)” value [3] was 88.8%.
With CC[C@H](C)[C@H](NC(=O)[C@H](CCCNC(=N)N)NC(=O)[C@@H](NC(=O)[C@H](C)NC(=O)[C@@H](NC(=O)[C@@H](NC(=O)[C@H](CC(C)C)NC(=O)[C@H](CCCNC(=N)N)NC(=O)[C@@H](N)C(C)C)[C@@H](C)CC)C(C)C)C(C)C)C(=O)N[C@@H](Cc1c[nH]c2ccccc12)C(=O)N[C@@H](CCCNC(=N)N)C(=O)N[C@@H](CN)C(N)=O (H-VRLIVAVRIWR[Dap]-NH2) the Activity [1] was “Active”, the inhibition [2] was “Dose-dependent effect” and the “residual biofilm growth (% of control)” value [3] was 11.9%.
CC[C@H](C)[C@H](NC(=O)[C@H](CC(C)C)NC(=O)[C@H](CCCNC(=N)N)NC(=O)[C@@H](N)C(C)C)C(=O)N[C@H](C(=O)N[C@@H](C)C(=O)N[C@H](C(=O)N[C@@H](CCCNC(=N)N)C(=O)N[C@@H](CCCCNC(=N)N)C(=O)N[C@@H](Cc1c[nH]c2ccccc12)C(=O)N[C@@H](CCCNC(=N)N)C(=O)N[C@@H](CCCNC(=N)N)C(N)=O)C(C)C)C(C)C (H-VRLIVAVR[hArg]WRR-NH2) was tested, and the Activity [1] was “Active”, the inhibition [2] was “Dose-dependent effect” and the “residual biofilm growth (% of control)” value [3] was 84.7%.
With H-VRLIVAKRIWRR-NH2 the Activity [1] was “Active”, the inhibition [2] was “Dose-dependent effect” and the “residual biofilm growth (% of control)” value [3] was 101.6%.
In the case of CC[C@H](C)[C@H](NC(=O)[C@H](CCCNC(=N)N)NC(=O)[C@@H](NC(=O)[C@H](C)NC(=O)[C@@H](NC(=O)[C@@H](NC(=O)[C@H](CC(C)C)NC(=O)[C@H](CCCNC(=N)N)NC(=O)[C@@H](N)CN)[C@@H](C)CC)C(C)C)C(C)C)C(=O)N[C@@H](Cc1c[nH]c2ccccc12)C(=O)N[C@@H](CCCNC(=N)N)C(=O)N[C@@H](CCCNC(=N)N)C(N)=O (H-[Dap]RLIVAVRIWRR-NH2), the Activity [1] is reported as “Active”, the inhibition [2] is reported as “Dose-dependent effect” and the “residual biofilm growth (% of control)” value [3] is reported as 8.5%.
With CC[C@H](C)[C@H](NC(=O)[C@H](CCCCNC(=N)N)NC(=O)[C@@H](NC(=O)[C@H](C)NC(=O)[C@@H](NC(=O)[C@@H](NC(=O)[C@H](CC(C)C)NC(=O)[C@H](CCCNC(=N)N)NC(=O)[C@@H](N)C(C)C)[C@@H](C)CC)C(C)C)C(C)C)C(=O)N[C@@H](Cc1c[nH]c2ccccc12)C(=O)N[C@@H](CCCNC(=N)N)C(=O)N[C@@H](CCCNC(=N)N)C(N)=O (H-VRLIVAV[hArg]IWRR-NH2) the Activity [1] was “Active”, the inhibition [2] was “Dose-dependent effect” and the “residual biofilm growth (% of control)” value [3] was 26.3%.

Source: ChEMBL document CHEMBL4376833, “Influence of Non-natural Cationic Amino Acids on the Biological Activity Profile of Innate Defense Regulator Peptides” (J Med Chem, 2019)
